Assay results as given in patent publication US8889345B2, “Detection methods of NADP(H) using mBFP” (priority 2012, dated 2014).
Each block holds one molecule with its values, some of them ahead of it.

Key:
Isocitrate dehydrogenase = assay: Inhibitor IC50 against NADPH dependent oxidoreductase, by his-mBFP fluorescence quantification of NADPH; assay type: biochemical; conditions: compounds added at 0.1 to 10 mM, sigma plot
Protocol: (§1) As an example of typical reactions, first, 0.02 units of glutathione reductase was reacted with 50 mM potassium phosphate buffer (pH 7.5) containing 5 mM of oxidized glutathione (GSSG) and 2 mM NADPH at room temperature, and then fluorescence was measured. In addition, 0.03 units of isocitrate dehydrogenase was reacted with 50 mM phosphate buffer (pH 7.2) containing 5 mM isocitrate, 2 mM MgCl2, and 2 mM NADP+ at room temperature, and then fluorescence was measured. In addition, 0.02 units of glucose-6-phosphate dehydrogenase was reacted with 50 mM Tris-HCL buffer (pH 7.5) containing 5 mM glucose-6-phosphate, 50 mM MgCl2, and 2 mM NADP+ at room temperature, and then fluorescence was measured. Further, 0.04 units of malate dehydrogenase was reacted with 50 mM Tris-HCL buffer (pH 7.5) containing 5 mM L-malate, 50 mM MgCl2, and 2 mM NADP+ at room temperature, and then fluorescence was measured. In addition, 0.02 units of NADPH oxidase was reacted with 50 mM phosphate buffered saline (PBS) containing 50 mM MgCl2 and 2 mM NADP+ at room temperature, and then fluorescence was measured. At the time of measuring the fluorescence, the reaction solution was diluted in consideration of mole ratio with his-mBFP.
(§2) In addition, the present invention may selectively select an activity inhibitor by restricting the library in the above-mentioned process with a clone having an oxidation/reduction enzyme family, adding a specific compound as well as a substrate in a process of measuring the activities of these enzymes, calculating a changed amount of NADP(H) to compare the calculated value with that of a control group (only substrate was add). These processes mean that after clones having related enzyme activities are cultured and a substrate and NADP(H) are added thereto, a changed amount of NADPH is quantified while inducing a reaction in an environment in which various synthetic materials are present.
(§3) In more detail, compounds having a possibility as the activity inhibitor were added to reaction solution of NADPH dependent oxidoreductase as in Example 7 at each concentration (0.1 to 10 mM). While the reaction was carried out, a produced amount of NADPH according to addition of each compound was quantified, and an inhibition degree of specific enzyme activity was confirmed by comparing the produced amount of NADPH in the case of adding the compound (test group) with that of in the case of not adding (control group).
(§4) After rates of NADPH production (reduction) reaction according to the concentration changes of primary selected compounds were measured, IC50 of each compound was calculated using a sigma plot program.

[1] = target: T1, Glucose-6-phosphate dehydrogenase (UniProt P11412); assay: as above; assay type: biochemical; conditions: compounds added at 0.1 to 10 mM, sigma plot
T1 sequence (P11412 1-505): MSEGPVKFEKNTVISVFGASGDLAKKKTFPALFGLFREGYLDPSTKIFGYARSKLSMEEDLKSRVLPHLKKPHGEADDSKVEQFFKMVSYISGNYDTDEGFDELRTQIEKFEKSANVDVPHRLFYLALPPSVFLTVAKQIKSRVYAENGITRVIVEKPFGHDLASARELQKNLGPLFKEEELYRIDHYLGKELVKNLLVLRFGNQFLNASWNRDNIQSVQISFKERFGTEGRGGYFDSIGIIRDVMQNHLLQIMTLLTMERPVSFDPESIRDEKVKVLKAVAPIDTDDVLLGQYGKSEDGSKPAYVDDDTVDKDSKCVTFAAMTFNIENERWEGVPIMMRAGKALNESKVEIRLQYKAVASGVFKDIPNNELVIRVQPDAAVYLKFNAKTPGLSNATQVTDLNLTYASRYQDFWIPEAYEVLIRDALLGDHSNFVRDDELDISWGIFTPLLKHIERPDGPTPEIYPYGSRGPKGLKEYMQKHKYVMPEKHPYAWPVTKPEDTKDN
Protocol: as §1, §2, §3, §4

Alcohol dehydrogenase = assay: as above; assay type: biochemical; conditions: compounds added at 0.1 to 10 mM, sigma plot
Protocol: as §1, §2, §3, §4

[2] = Retention of fluorescence of his-mBFP according to storage method; assay type: physicochemical
Protocol: In order to search a long-term storage method for his-mBFP requiring retention of the structure that is an important factor in fluorescence activity, suitable protein storage methods were observed. As storage conditions, degrees of reduction of fluorescence according to time were confirmed at different temperatures (4° C., −20° C., −80° C.) and different concentrations of additives for storage (5% trehalose, 25% glycerol, 50% glycerol, based on final concentration).
Among his-mBFP samples stored under each of the conditions, in the case of frozen samples, the sample was sufficiently hydrated in a cool buffer for 5 to 45 minutes in consideration of reconstruction of the structure, time required for restoration, or the like, and then was used in the experiment.

Molecule: CC(O)(C(=O)O)C(CC(=O)O)C(=O)O (stereo not drawn) [methylisocitric acid]
- IC50 (Isocitrate dehydrogenase): 102 ± 7.4 µM

Molecule: O=C(O[C@@H]1Cc2c(O)cc(O)cc2O[C@H]1c1cc(O)c(O)c(O)c1)c1cc(O)c(O)c(O)c1 [gallocatechin gallate]
- IC50 [1]: 225 ± 28.6 µM

Molecule: O=C(O)C(=O)C(C(=O)O)C(O)C(=O)O (stereo not drawn) [oxalomalic acid]
- IC50 (Isocitrate dehydrogenase): 63.3 ± 5.2 µM

- IC50 (Alcohol dehydrogenase): 40.6 ± 5.8 µM
Molecule: Cc1cn[nH]c1 [Formepizole]

- IC50 (Alcohol dehydrogenase): 61.2 ± 4.1 µM
Molecule: COc1ccc(/C=C/c2cc(O)cc(O[C@@H]3O[C@H](CO)[C@@H](O)[C@H](O)[C@H]3O)c2)cc1O [Rhaponticin]

- IC50 (Alcohol dehydrogenase): 48.9 ± 4.9 µM
Molecule: OC[C@H]1O[C@@H](Oc2cc(O)cc(/C=C/c3ccc(O[C@@H]4O[C@H](CO)[C@@H](O)[C@H](O)[C@H]4O)cc3O)c2)[C@H](O)[C@@H](O)[C@@H]1O [Mulberroside A]

Molecule: O=C(O[C@@H]1Cc2c(O)cc(O)cc2O[C@@H]1c1ccc(O)c(O)c1)c1cc(O)c(O)c(O)c1 [epicatechin gallate]
- IC50 [1]: 235 ± 37.8 µM

B1: his-mBFP: metagenome-derived blue fluorescent protein with histidine tag, amino acid sequence SEQ ID NO: 3 (protein)
chain: MRGSHHHHHHGSACQNLNGKVAFVTGGSRGIGAAIVRRLAADGADIAFTYVSASSKNVATALVQELEAKGRRARAIQADSADPAQVRQAVEQAIVQLGPVDVLVNNAGIFLAGPLGEVTLDDYERTMNINVRAPFVAIQAAQASMPDGGRIINIGSCLAERAGRAGVTLYAASKSALLGMTRGLARDLGARGITANVVHPGPIDTDMNPADGERSGELVAVLSLPHYGEVRDIAGMVAFLAGPDGRYVTGASLAVDGGFAA
modifications: synthetic construct of His-tagged metagenome-derived blue fluorescent protein (mBFP)
- fluorescence maintained ([2]; after 6 months, additive (25% to 50%) added): ≥ 90%
- fluorescence maintained ([2]; both cool and frozen conditions after 6 months): ≥ 80%
- fluorescence maintained ([2]; cold room at 4° C. for 2 months, solution state, no additive for storage): ≥ 80%
- fluorescence maintained ([2]; freezer at −20 to −80° C. for 2 months with an additive for storage): ≥ 95%
- fluorescence intensity maintained ([2]; glycerol final concentration 50%, freezer at −80° C.): ≥ 90%
